Laboratory results: patent publication US8735443B2, “Method of treating diabetes-related vascular complications” (Kuwait University, priority 2008, dated 2014)

Tests used:
ICAM-1 = experiment: Aortic mRNA expression by QRT-PCR, ICAM-1; format: in vivo, rat; conditions: GK rats, LA therapy
Protocol: An expression of a number of inflammatory markers, including IL-6 and ICAM-1, were measured in control, diabetic and LA-treated diabetic vessels. The results confirmed marked elevation in the vascular expression of both […] and ICAM-1 during diabetes, as shown in FIGS. 11A and 11B. […] Aortic expression of IL-6 is shown in FIG. 11A and aortic expression of intracellular adhesion molecule (ICAM-1) is shown in FIG. 11B. Both were determined using QRT-PCR based techniques.

[1] = tested on: diabetic fibroblasts (DFs); experiment: LDH release assay (necrotic cell death) in fibroblasts; format: cell-based, rat; conditions: lipoic acid 500 μM, Nrf2-dependent
Description: (§1) To determine the effect of α-lipoic acid on isolated cells from normal and diabetic rats, primary rat fibroblasts were derived from dorsal skin biopsies performed on four diabetic Coto Kakizaki rats (DFs) and four age-matched (12-14 months) and sex-matched (female) Wistar control rats (CFs). After sterilization in povidine solution, the rat skin was washed in sterile water and rinsed in 70% ethanol in phosphate-buffered saline (PBS). The epidermis and dermis were separated following overnight incubation in 0.25% Trypsin/EDTA at 4° C. Samples were washed, diced and digested for thirty minutes at 37° C. in collagenase type I (250 U/ml) dissolved in Dulbecco's modified Eagle medium (DMEM; Invitrogen) containing penicillin (100 U/ml), 2 mM L-glutamine and 26 mM HEPES. After collagenase treatment, the cells were dislodged, centrifuged and resuspended in medium supplemented with 10% fetal bovine serum. The cells were grown under standard conditions, and the medium was changed every three to four days. Control and diabetic fibroblasts were grown under normo-glycemic conditions (5.5 mM glucose) and used in experiments at passage 3 to 5.
(§2) Fibroblasts were seeded at 1×10^4 cells/well on a 96-well plate. […] Quantification of cell viability was assessed using a Cell Counting Kit-8 (Dojindo, Kumamoto, Japan). […]

[2] = tested on: control fibroblasts (CFs); experiment: Cell viability after hydrogen peroxide (Cell Counting Kit-8), control fibroblasts; format: cell-based, rat; conditions: lipoic acid 500 μM, Nrf2-dependent
Description: as §1, §2

aortic tissue = experiment: Aortic superoxide production, lucigenin-enhanced chemiluminescence; format: in vivo, rat; conditions: GK rats, LA 50 mg/kg i.p. daily for four weeks
Protocol: In the study, with regard to measurement of vascular superoxide anion formation, O2^− concentration in aortic tissue was determined using a lucigenin-enhanced chemiluminescence method, and the resulting data were further confirmed by a cytochrome c-based technique. Segments of the thoracic aorta were placed into 2 ml Krebs-Henseleit buffer (KHB, pH 7.4), and prewarmed to 37° C. for one hour. Immediately before measurement, rings were transferred to scintillation vials containing KHB with 5 μmol/L lucigenin and the O2^− generated chemiluminescence was recorded for five minutes with a scintillation counter. The amount of O2^− produced was quantified using a standard curve of O2^− generation by xanthine/xanthine oxidase and the data are expressed as nmol per min, per mg, of wet weight. In some experiments, vessels were denuded of endothelium by gentle rubbing of the luminal surface, whereas in others, N^ω-nitro-L-arginine methyl ester (L-NAME) 0.1 mM, diphenylene iodonium 0.1 mM, or apocynin 3 mM were added 60 min before determining O2^− generation.

caspase 3/7 = experiment: Caspase 3/7 activity in aorta (APO-ONE assay); format: in vivo, rat; conditions: chronic LA treatment, GK rats
Protocol: For detection of caspase 3-like activity, protein was isolated and caspase activity was detected in resulting supernatant using an APO-ONE homogenous caspase 3/7 assay (Promega). With regard to subcellular fractionation and western blotting, aortic tissue nuclear extracts were prepared and protein (40 μg) was loaded in each well of […] polyacrylamide gel. Separated polypeptide was transferred to nitrocellulose membrane IBio-Rad) and probed with anti NFκB at a 1:2,000 […]. Chemiluminescent detection was performed by an ECL Western Blotting Detection Kit®.

HEK-499 cells = experiment: Viability of cells exposed to cisplatin; format: cell-based; conditions: 500 microMolar α-lipoic acid in the media prior to cisplatin at variable doses
Description: (§3) Alpha-lipoic acid increased HEK-499 cells, which were engineered to be resistant to chemotherapies and radiotherapies by depleting Raf Kinase inhibitory protein resistance to lethal doses of cisplatin, a chemical used in cancer therapy.

NF-κB = NF-κB expression by western blotting, HEK-499; format: cell-based; conditions: HEK-499 cells exposed to α-lipoic acid
Description: as §3

[3] = tested on: diabetic fibroblasts (DFs); experiment: Cell viability after hydrogen peroxide (Cell Counting Kit-8), diabetic fibroblasts; format: cell-based, rat; conditions: diabetic fibroblasts, lipoic acid 500 μM, Nrf2-dependent
Description: as §1
Fibroblasts were seeded at 1×10^4 cells/well on a 96-well plate. After a 24 hour incubation period, the cells were exposed to various concentrations of HP in serum-free medium at 37° C. for 2 hours [lactate dehydrogenase (LDH), a marker for necrotic cell death], or for 16 hours (cell viability). Quantification of cell viability was assessed using a Cell Counting Kit-8 (Dojindo, Kumamoto, Japan). The values obtained were normalized to the vehicle-treated cells. To measure the rate of necrotic cell death, an LDH release assay was performed using a CytoTox-ONE Homogeneous Membrane Integrity Assay kit (Promega). Expression of Nrf2 was inhibited by small-interfering RNA (siRNA) oligonucleotides. The sequences were designed and synthesized by Qiagen. The best silencing efficiency was obtained by incubating 2.0×10^5 cells/well in a 6-well plate with complexes formed by 5 nM siRNA (1 μl) and 9 μL of HiPerfect transfection reagent (Qiagen) dissolved in 90 μl medium, according to the manufacturer's instructions. The transfection was achieved by adding 0.9 ml of medium to the seeded cells followed by 100 μl of siRNA/HiPerfect complex. Knock-out efficiency was verified by real-time PCR and Western blot. Twenty-four hours later, 1 ml of fresh medium was added; 48 hr after transfection the cells were exposed to either vehicle or lipoic acid at a concentration of 500 μM.

rat aortic rings = experiment: Acetylcholine-induced endothelium dependent relaxation of aortic rings in organ chamber; format: in vivo; conditions: GK diabetic rats
Protocol: In the experiments, with regard to the determination of endothelium dependent relaxation (EDR) in the aorta, EDR in response to various concentrations of acetylcholine (Ach) (10^−9 to 10^−6 mol/l) was assessed in norepinephrine (10^−7 mol/l) preconstructed rat aortic rings using an organ chamber bath. The effects of the NAD(P)H oxidase inhibitor apocynin (3×10^−4 mol/l) and the O2^− scavenger Tiron (10 mmol/l) on Ach-induced responses of diabetic arteries were also considered.

O=C(O)CCCCC1CCSS1 (stereo not drawn) [LA, alpha-lipoic acid]
diabetic vascular proinflammatory phenotype, aortic expression of ICAM-1 (ICAM-1): partially reversed
LDH release into cell culture media (necrotic cell death) in response to HP [1]: reduces cell death
protection of cell viability from hydrogen peroxide [2]: protected
diabetes-mediated increase in aortic superoxide production (aortic tissue): suppression
reduction of caspase 3/7 in diabetic arteries (caspase 3/7): 48%
protection of cells from lethal doses of cisplatin (HEK-499 cells): significantly protected
NF-κB expression (NF-κB): significant increase
protection of cell viability from hydrogen peroxide [3]: protected
decline in acetylcholine (Ach)-induced relaxation of rat aorta (rat aortic rings; LA 50 mg/kg i.p. daily for four weeks): ameliorated
beneficial effect on Ach-induced relaxation after discontinuation (rat aortic rings; two weeks after discontinuation of LA): not evident
